Experimental data from publication PMC7031696 (Cell chemical biology, 2019).
Like-named read-outs stand apart in the source and are kept apart here.

Tests used:
[1] = tested on: asynchronous 3D7-A10 parasite cultures; assay: Standard 72-h exposure asexual blood stage susceptibility assay (IC50^72h); type: cell-based, Plasmodium falciparum; settings: Plasmodium falciparum, 3D7, 72 h, read-out: Overall (72hr assay) Mean IC50 (IC50^72h)
[2] = tested on: 3D7-MR4 trophozoite parasite-infected RBCs; assay: Metabolomic profiling (hydrophilic metabolite changes, UHPLC-MS); type: cell-based, Plasmodium falciparum
[3] = tested on: Plasmodium falciparum 3D7-A10 parasites; assay: Stage specificity assay (8-h exposure of synchronized stages, IC50^8h); type: cell-based; settings: for IC50: Plasmodium falciparum

## CCOC(=O)C1=C(C)NC2=C(C(=O)CC(c3ccc(OC)c(OC)c3)C2)C1c1ccccc1Cl (stereo not shown) [GNF-Pf-5660, reference compound]
[1]
  IC50: 4.4 nM
[2]; 10 × IC50^72h, 2.5 hr, trophozoites
  peptide levels (hemoglobin catabolism signature): decreased peptide levels
[2]; metabolite 3-phosphoglycerate, log2 fold change
  Log2(fold changes) 3-phosphoglycerate: 0.0553
[2]; metabolite 4-Pyridoxic acid, log2 fold change
  Log2(fold changes) 4-Pyridoxic acid: 0.0311
[2]; metabolite 4-aminobutyrate, log2 fold change
  Log2(fold changes) 4-aminobutyrate: -0.1913
[2]; metabolite 4-phosphopantetheine, log2 fold change
  Log2(fold changes) 4-phosphopantetheine: -0.0588
[2]; metabolite 4-phosphopantothenate, log2 fold change
  Log2(fold changes) 4-phosphopantothenate: -0.0656
[2]; metabolite 5-aminopentanoic acid, log2 fold change
  Log2(fold changes) 5-aminopentanoic acid: 0.0000
[2]; metabolite 5-methyl-THF, log2 fold change
  Log2(fold changes) 5-methyl-THF: 0.0000
[2]; metabolite 5-phosphoribosyl-1-pyrophosphate, log2 fold change
  Log2(fold changes) 5-phosphoribosyl-1-pyrophosphate: 0.0000
[2]; metabolite 6-phospho-D-gluconate, log2 fold change
  Log2(fold changes) 6-phospho-D-gluconate: -0.0448
[2]; metabolite HVDD
  Log2(fold change) HVDD: -2.3471
[2]; metabolite Hydroxyisocaproic acid
  Log2(fold change) Hydroxyisocaproic acid: 0.0000
[2]; metabolite IDP
  Log2(fold change) IDP: 0.0000
[2]; metabolite IMP
  Log2(fold change) IMP: -0.0436
[2]; metabolite Inositol
  Log2(fold change) Inositol: 0.0000
[2]; metabolite Isopentyl-PP
  Log2(fold change) Isopentyl-PP: 0.0000
[2]; metabolite L-arginino-succinate
  Log2(fold change) L-arginino-succinate: -1.4037
[2]; metabolite LD
  Log2(fold change) LD: 0.0323
[2]; metabolite Myristoyl/tetradecanoyl-CoA
  Log2(fold change) Myristoyl/tetradecanoyl-CoA: 0.0000
[2]; metabolite N-Acetyl-L-alanine
  Log2(fold change) N-Acetyl-L-alanine: -0.5679
[2]; metabolite N-acetyl-L-ornithine
  Log2(fold change) N-acetyl-L-ornithine: -1.3851
[2]; metabolite N-acetyl-glucosamine-1/6-phosphate
  Log2(fold change) N-acetyl-glucosamine-1/6-phosphate: 0.1805
[2]; metabolite N-acetyl-glutamate
  Log2(fold change) N-acetyl-glutamate: 0.1150
[2]; metabolite N-acetyl-glutamine
  Log2(fold change) N-acetyl-glutamine: -0.5582
[2]; metabolite N-carbamoyl-L-aspartate
  Log2(fold change) N-carbamoyl-L-aspartate: -0.1586
[2]; metabolite NAD+
  Log2(fold change) NAD+: -0.1007
[2]; metabolite NADH
  Log2(fold change) NADH: 0.4611
[2]; metabolite NADP+
  Log2(fold change) NADP+: 0.0287
[2]; metabolite NADPH
  Log2(fold change) NADPH: 0.0479
[2]; metabolite O-acetyl-L-serine
  Log2(fold change) O-acetyl-L-serine: 0.0000
[2]; metabolite Octoluse 8/1P
  Log2(fold change) Octoluse 8/1P: -0.0806
[2]; metabolite Octoluse Bisphosphate
  Log2(fold change) Octoluse Bisphosphate: -0.3183
[2]; metabolite PD
  Log2(fold change) PD: -1.8683
[2]; metabolite PE
  Log2(fold change) PE: -1.8289
[2]; metabolite PEE
  Log2(fold change) PEE: -1.8489
[2]; metabolite PEEK
  Log2(fold change) PEEK: -2.1431
[2]; metabolite PVNF
  Log2(fold change) PVNF: -2.1997
[2]; metabolite Pyroglutamic acid
  Log2(fold change) Pyroglutamic acid: -0.1216
[2]; metabolite Pyrophosphate
  Log2(fold change) Pyrophosphate: 0.0000
[2]; metabolite Ribose-5-phosphate
  Log2(fold change) Ribose-5-phosphate: 0.0000
[2]; metabolite S-adenosyl-L-homocysteine
  Log2(fold change) S-adenosyl-L-homocysteine: -0.0693
[2]; metabolite S-adenosyl-L-methioninamine
  Log2(fold change) S-adenosyl-L-methioninamine: 0.0000
[2]; metabolite S-adenosyl-L-methionine
  Log2(fold change) S-adenosyl-L-methionine: 0.0000
[2]; metabolite S-methyl-5'-thioadenosine
  Log2(fold change) S-methyl-5'-thioadenosine: -0.0720
[2]; metabolite SD
  Log2(fold change) SD: -1.1525
[2]; metabolite SDL
  Log2(fold change) SDL: -1.7902
[2]; metabolite SID
  Log2(fold change) SID: 0.0000
[2]; metabolite Sedoheptulose bisphosphate
  Log2(fold change) Sedoheptulose bisphosphate: -0.1508
[2]; metabolite Thiamine pyrophosphate
  Log2(fold change) Thiamine pyrophosphate: 0.0000
[2]; metabolite UDP-D-glucose, log2 fold change
  Log2(fold changes) UDP-D-glucose: 0.0139
[2]; metabolite UDP-D-glucuronate, log2 fold change
  Log2(fold changes) UDP-D-glucuronate: 0.0860
[2]; metabolite UDP-N-acetyl-glucosamine, log2 fold change
  Log2(fold changes) UDP-N-acetyl-glucosamine: -0.0276
[2]; metabolite UDP, log2 fold change
  Log2(fold changes) UDP: 0.1561
[2]; metabolite UMP, log2 fold change
  Log2(fold changes) UMP: -0.3498
[2]; metabolite UTP, log2 fold change
  Log2(fold changes) UTP: 0.0000
[2]; metabolite hydroxyphenylpyruvate
  Log2(fold change) hydroxyphenylpyruvate: 0.0000
[2]; metabolite hydroxyproline/Aminolevulinate
  Log2(fold change) hydroxyproline/Aminolevulinate: 0.0000
[2]; metabolite hypoxanthine
  Log2(fold change) hypoxanthine: 0.0715
[2]; metabolite indole
  Log2(fold change) indole: -0.1422
[2]; metabolite inosine
  Log2(fold change) inosine: -0.1669
[2]; metabolite isoleucine
  Log2(fold change) isoleucine: 0.0000
[2]; metabolite lactate
  Log2(fold change) lactate: -0.0958
[2]; metabolite leucine
  Log2(fold change) leucine: 0.0000
[2]; metabolite lysine
  Log2(fold change) lysine: 0.0000
[2]; metabolite malate
  Log2(fold change) malate: -0.8784
[2]; metabolite maleic acid
  Log2(fold change) maleic acid: -0.8581
[2]; metabolite methionine
  Log2(fold change) methionine: -0.1925
[2]; metabolite myo-inositol
  Log2(fold change) myo-inositol: 0.0386
[2]; metabolite nicotinamide mononucleotide
  Log2(fold change) nicotinamide mononucleotide: -0.1106
[2]; metabolite nicotinate
  Log2(fold change) nicotinate: 0.1148
[2]; metabolite ornithine
  Log2(fold change) ornithine: -0.1689
[2]; metabolite orotate
  Log2(fold change) orotate: -0.3275
[2]; metabolite orotidine-5'-phosphate
  Log2(fold change) orotidine-5'-phosphate: -1.3140
[2]; metabolite oxaloacetate
  Log2(fold change) oxaloacetate: -0.1481
[2]; metabolite p-aminobenzoate
  Log2(fold change) p-aminobenzoate: -0.1878
[2]; metabolite p-hydroxybenzoate
  Log2(fold change) p-hydroxybenzoate: 0.0000
[2]; metabolite pantothenate
  Log2(fold change) pantothenate: -0.2858
[2]; metabolite phenylalanine
  Log2(fold change) phenylalanine: -0.3503
[2]; metabolite phenylpyruvate
  Log2(fold change) phenylpyruvate: 0.0000
[2]; metabolite phosphoenolpyruvate
  Log2(fold change) phosphoenolpyruvate: 0.2491
[2]; metabolite prephenate
  Log2(fold change) prephenate: -0.5893
[2]; metabolite proline
  Log2(fold change) proline: 0.0000
[2]; metabolite pyridoxine
  Log2(fold change) pyridoxine: -0.1054
[2]; metabolite pyruvate
  Log2(fold change) pyruvate: -0.3244
[2]; metabolite riboflavin
  Log2(fold change) riboflavin: -0.0162
[2]; metabolite ribose
  Log2(fold change) ribose: 0.0000
[2]; metabolite ribose-phosphate
  Log2(fold change) ribose-phosphate: -0.2537
[2]; metabolite ribulose-5-phosphate
  Log2(fold change) ribulose-5-phosphate: 0.0000
[2]; metabolite serine
  Log2(fold change) serine: 0.0000
[2]; metabolite sn-glycerol-3-phosphate
  Log2(fold change) sn-glycerol-3-phosphate: 0.1845
[2]; metabolite succinate/Methylmalonic acid
  Log2(fold change) succinate/Methylmalonic acid: -0.0086
[2]; metabolite succinyl-CoA/methylmalonyl-CoA
  Log2(fold change) succinyl-CoA/methylmalonyl-CoA: 0.0000
[2]; metabolite taurine
  Log2(fold change) taurine: 0.0000
[2]; metabolite thiamine
  Log2(fold change) thiamine: -0.1840
[2]; metabolite threonine/homoserine
  Log2(fold change) threonine/homoserine: 0.0000
[2]; metabolite thymidine
  Log2(fold change) thymidine: 0.0000
[2]; metabolite thymine, log2 fold change
  Log2(fold changes) thymine: 0.0000
[2]; metabolite trehalose-6-Phosphate, log2 fold change
  Log2(fold changes) trehalose-6-Phosphate: 0.0000
[2]; metabolite tryptophan, log2 fold change
  Log2(fold changes) tryptophan: -0.0821
[2]; metabolite tyrosine, log2 fold change
  Log2(fold changes) tyrosine: -0.1854
[2]; metabolite uridine, log2 fold change
  Log2(fold changes) uridine: -0.2184
[3]; 3D7-A10
  Ratio lowest IC50 8hr/IC50 72hr: 18.0
[3]; 3D7, read-out: Early rings Mean IC50 (IC50^8h), 8-h exposure 0–8 hr, 3D7-A10, survival at 60 h
  IC50: 119 nM
[3]; 3D7, read-out: Early trophozoites Mean IC50 (IC50^8h), 8-h exposure 16–24 hr, 3D7-A10, survival at 60 h
  IC50: 108 nM
[3]; 3D7, read-out: Late rings Mean IC50 (IC50^8h), 8-h exposure 8–16 hr, 3D7-A10, survival at 60 h
  IC50: 238 nM
[3]; 3D7, read-out: Late trophozoites Mean IC50 (IC50^8h), 8-h exposure 24–32 hr, 3D7-A10, survival at 60 h
  IC50: 79.3 nM
[3]; 3D7, read-out: Schizonts Mean IC50 (IC50^8h), 8-h exposure 32–40 hr, 3D7-A10, survival at 60 h
  IC50: 290 nM
[3]; period when the parasite was most susceptible (lowest IC50^8h)
  Stage of peak activity (Figure 6): rings and trophozoites
